Measurements from the supplement of paper PMC13380429.

How the values were obtained:
Details in all cases: 72 h
[1] = tested on: Caco-2; experiment: cell viability relative to DMSO; higher = less toxic
[2] = tested on: Calu-3; experiment: as above
[3] = tested on: HepG2; experiment: as above
[4] = tested on: U2OS; experiment: as above
[5] = tested on: Vero E6; experiment: as above
[6] = tested on: Caco-2; experiment: relative viability EC50 (midpoint between 100% and the lowest measured viability); higher = less toxic
[7] = tested on: Calu-3; experiment: as above
[8] = tested on: HepG2; experiment: as above
[9] = tested on: U2OS; experiment: as above
[10] = tested on: Vero E6; experiment: as above
[11] = tested on: Caco-2; experiment: drug sensitivity score (DSS) for viability; higher = more toxic; extreme values may be limits of the assay
[12] = tested on: Calu-3; experiment: as above
[13] = tested on: HepG2; experiment: as above
[14] = tested on: U2OS; experiment: as above
[15] = tested on: Vero E6; experiment: as above

| SMILES | cell viability ([1]; 1 nM) [%] | cell viability ([1]; 10 nM) [%] | cell viability ([1]; 100 nM) [%] | cell viability ([1]; 1000 nM) [%] | cell viability ([1]; 10000 nM) [%] | cell viability ([2]; 1 nM) [%] | cell viability ([2]; 10 nM) [%] | cell viability ([2]; 100 nM) [%] | cell viability ([2]; 1000 nM) [%] | cell viability ([2]; 10000 nM) [%] | cell viability ([3]; 1 nM) [%] | cell viability ([3]; 10 nM) [%] | cell viability ([3]; 100 nM) [%] | cell viability ([3]; 1000 nM) [%] | cell viability ([3]; 10000 nM) [%] | cell viability ([4]; 1 nM) [%] | cell viability ([4]; 10 nM) [%] | cell viability ([4]; 100 nM) [%] | cell viability ([4]; 1000 nM) [%] | cell viability ([4]; 10000 nM) [%] | cell viability ([5]; 1 nM) [%] | cell viability ([5]; 10 nM) [%] | cell viability ([5]; 100 nM) [%] | cell viability ([5]; 1000 nM) [%] | cell viability ([5]; 10000 nM) [%] | relative viability EC50 [6] [µM] | relative viability EC50 [7] [µM] | relative viability EC50 [8] [µM] | relative viability EC50 [9] [µM] | relative viability EC50 [10] [µM] | drug sensitivity score [11] | drug sensitivity score [12] | drug sensitivity score [13] | drug sensitivity score [14] | drug sensitivity score [15] |
| --- | --- | --- | --- | --- | --- | --- | --- | --- | --- | --- | --- | --- | --- | --- | --- | --- | --- | --- | --- | --- | --- | --- | --- | --- | --- | --- | --- | --- | --- | --- | --- | --- | --- | --- | --- |
| NC(=O)c1ncn([C@@H]2O[C@H](CO)[C@@H](O)[C@H]2O)c1N [acadesine] | 96.7 | 98.1 | 86.4 | 92.7 | 95.7 | 96.6 | 94.9 | 84.2 | 97.8 | 90.8 | 98.1 | 96.1 | 105 | 97.9 | 102 | 100 | 91.8 | 96.5 | 97.9 | 102 | 101 | 98 | 100 | 94.4 | 97.2 | > 10 | > 10 | > 10 | > 10 | > 10 | 0 | 0 | 0 | 0 | 0 |
| Nc1ccn(C[C@@H](CO)OCP(=O)(O)O)c(=O)n1 [cidofovir] | 103 | 92.7 | 106 | 96.8 | 101 | 93.7 | 104 | 112 | 101 | 107 | 97 | 98.3 | 104 | 111 | 120 | 99.4 | 95.7 | 97.5 | 95.3 | 98.7 | 93.7 | 94.3 | 88.4 | 87.4 | 99.6 | > 10 | > 10 | > 10 | > 10 | > 10 | 0 | 0 | 0 | 0 | 0 |
| N[C@@H](Cc1cc(CP(=O)(O)O)cc(-c2ccccc2Cl)c1)C(=O)O [SDZ-220-581] | 102 | 91.5 | 91 | 101 | 111 | 107 | 92.8 | 101 | 98.6 | 114 | 96 | 99.6 | 92.6 | 101 | 104 | 99.8 | 99.3 | 96.8 | 106 | 105 | 95.8 | 102 | 92.7 | 95.9 | 107 | > 10 | > 10 | > 10 | > 10 | > 10 | 0 | 0 | 0 | 0 | 0 |
| CN(C(=O)CCCOc1ccc2[nH]c(=O)ccc2c1)C1CCCCC1 [cilostamide] | 100 | 94.7 | 99.2 | 96.9 | 90.6 | 92.8 | 92.9 | 94.6 | 85.3 | 105 | 97.2 | 98.7 | 98.8 | 110 | 110 | 102 | 95.5 | 101 | 92.9 | 97 | 91.7 | 98.3 | 89.8 | 98.1 | 104 | > 10 | > 10 | > 10 | > 10 | > 10 | 0 | 0 | 0 | 0 | 0 |
| Oc1cccc2cccnc12 [oxyquinoline] | 109 | 96.4 | 84.7 | 93.2 | 88.7 | 101 | 114 | 95.5 | 104 | 98.8 | 119 | 79.7 | 110 | 102 | 80.9 | 101 | 97.5 | 103 | 97.5 | 100 | 96 | 100 | 94.2 | 103 | 90.8 | > 10 | > 10 | > 10 | > 10 | > 10 | 3.1 | 0 | 0.3 | 0 | 0 |
| Cc1cc(C#N)cc(C)c1Oc1nc(Nc2ccc(C#N)cc2)nc(N)c1Br [etravirine] | 94 | 93.7 | 97.2 | 105 | 102 | 94.3 | 95.8 | 95.7 | 96.5 | 103 | 110 | 101 | 92.3 | 99.8 | 102 | 103 | 95.2 | 97.2 | 95.2 | 95.3 | 97.5 | 97.9 | 95.7 | 105 | 107 | > 10 | > 10 | > 10 | > 10 | > 10 | 0 | 0 | 0 | 0 | 0 |
| C[C@H](CCC(=O)NCCS(=O)(=O)O)[C@H]1CC[C@H]2[C@@H]3[C@@H](O)C[C@@H]4C[C@H](O)CC[C@]4(C)[C@H]3CC[C@]12C [ursodeoxycholyltaurine] | 103 | 94.9 | 87.4 | 91.8 | 108 | 106 | 93.9 | 100 | 104 | 97 | 94.5 | 96.7 | 85.1 | 97.7 | 96.8 | 97.8 | 97.4 | 98.9 | 97.2 | 98.4 | 105 | 110 | 100 | 101 | 97.2 | > 10 | > 10 | > 10 | > 10 | > 10 | 0 | 0 | 0 | 0 | 0 |
